Results: patent US20080234262A1 (Wyeth, priority 2007, published 2008)

How the values were obtained:
PI3K = PI3K (Homo sapiens, UniProt P42336); test: Fluorescence polarization assay for PI3K; assay type: biochemical; conditions: PI3Kα; read-out: PI3Kα IC50;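 further: PI3K kinase reaction on PIP2 with ATP, 30-60 min, product sensed by GST-GRP with red probe in fluorescence polarization (mP), controls without enzyme and at zero time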
prostate line LNCap = test: In vitro cell culture growth assay (MTS), LNCap; assay type: cell-based, human; conditions: Homo sapiens, LNCaP, 72 h, LNCap cells, three days after drug treatment;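 further: viable cell density read by absorbance at 490 nm, growth expressed as percent of vehicle-treated cells on the same plate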
breast line MDA468 = test: In vitro cell culture growth assay (MTS), MDA468; assay type: cell-based, human; conditions: Homo sapiens, 72 h, MDA468 cells, three days after drug treatment
Outline: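 Growth measured as percent of same-plate vehicle control by MTS metabolic dye conversion (A490). Breast MDA468 and prostate LNCap cells, plated a day ahead, were exposed to compounds for 3 days.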

PI3K, sequence (P42336 whole entry): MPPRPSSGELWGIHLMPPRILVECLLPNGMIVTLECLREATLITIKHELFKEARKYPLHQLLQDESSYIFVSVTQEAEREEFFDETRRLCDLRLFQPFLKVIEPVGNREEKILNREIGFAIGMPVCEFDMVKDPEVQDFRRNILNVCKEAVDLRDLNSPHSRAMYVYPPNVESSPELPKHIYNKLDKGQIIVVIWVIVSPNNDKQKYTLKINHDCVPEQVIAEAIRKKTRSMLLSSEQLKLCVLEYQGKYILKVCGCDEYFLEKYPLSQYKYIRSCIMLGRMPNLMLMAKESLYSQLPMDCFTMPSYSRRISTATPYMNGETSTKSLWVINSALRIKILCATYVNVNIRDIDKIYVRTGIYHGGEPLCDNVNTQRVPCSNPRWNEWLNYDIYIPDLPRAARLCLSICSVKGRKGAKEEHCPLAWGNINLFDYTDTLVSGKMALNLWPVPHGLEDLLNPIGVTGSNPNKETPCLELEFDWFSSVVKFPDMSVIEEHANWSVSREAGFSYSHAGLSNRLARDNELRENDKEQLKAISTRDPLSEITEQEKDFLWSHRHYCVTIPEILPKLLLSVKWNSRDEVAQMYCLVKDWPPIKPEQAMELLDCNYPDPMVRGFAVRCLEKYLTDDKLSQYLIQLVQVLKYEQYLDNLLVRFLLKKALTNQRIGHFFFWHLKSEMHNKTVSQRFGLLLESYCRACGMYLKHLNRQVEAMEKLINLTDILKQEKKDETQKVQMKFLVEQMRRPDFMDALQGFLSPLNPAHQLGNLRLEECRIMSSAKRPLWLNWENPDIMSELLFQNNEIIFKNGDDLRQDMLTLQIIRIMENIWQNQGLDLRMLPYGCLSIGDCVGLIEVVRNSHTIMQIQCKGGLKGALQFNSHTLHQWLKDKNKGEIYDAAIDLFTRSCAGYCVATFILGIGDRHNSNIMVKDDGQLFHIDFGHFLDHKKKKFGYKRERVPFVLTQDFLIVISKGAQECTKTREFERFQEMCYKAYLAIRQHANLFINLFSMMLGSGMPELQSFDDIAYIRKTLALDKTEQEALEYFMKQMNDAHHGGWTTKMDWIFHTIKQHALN
PI3K, sequence (P27986 whole entry partner): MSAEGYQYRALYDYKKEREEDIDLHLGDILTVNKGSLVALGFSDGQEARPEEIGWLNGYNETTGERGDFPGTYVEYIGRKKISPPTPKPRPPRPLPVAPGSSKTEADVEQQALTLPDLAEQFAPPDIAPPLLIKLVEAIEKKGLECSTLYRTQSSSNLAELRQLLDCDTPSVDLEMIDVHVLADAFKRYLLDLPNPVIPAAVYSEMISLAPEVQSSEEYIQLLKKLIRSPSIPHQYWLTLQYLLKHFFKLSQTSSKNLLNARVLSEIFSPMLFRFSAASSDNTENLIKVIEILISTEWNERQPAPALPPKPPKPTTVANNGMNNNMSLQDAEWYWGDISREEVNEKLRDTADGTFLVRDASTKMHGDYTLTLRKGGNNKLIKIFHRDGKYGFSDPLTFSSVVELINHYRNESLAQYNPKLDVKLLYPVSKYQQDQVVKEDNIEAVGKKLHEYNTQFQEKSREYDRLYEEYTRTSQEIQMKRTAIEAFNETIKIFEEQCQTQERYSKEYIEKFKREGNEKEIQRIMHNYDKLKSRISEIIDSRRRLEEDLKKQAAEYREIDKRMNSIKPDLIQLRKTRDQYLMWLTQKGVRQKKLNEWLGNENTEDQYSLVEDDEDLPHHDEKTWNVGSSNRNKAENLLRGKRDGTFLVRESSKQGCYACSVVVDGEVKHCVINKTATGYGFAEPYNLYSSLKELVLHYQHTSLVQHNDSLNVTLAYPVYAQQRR

IC50 (PI3K)	IC50 (prostate line LNCap)	Compound	IC50 (breast line MDA468)
2050 nM	1100 nM	Nc1ccc(-c2nc(N3CCOCC3)c3cnn(C4CCC5(CC4)OCCO5)c3n2)cc1 [Compound 565, 4-[1-(1,4-dioxaspiro[4.5]dec-8-yl)-4-morpholin-4-yl-1H-pyrazolo[3,4-d]pyrimidin-6-yl]aniline]	7200 nM
74 nM	< 27 nM	CNC(=O)Nc1ccc(-c2nc(N3CCOCC3)c3cnn(C4CCC5(CC4)OCCO5)c3n2)cc1 [Compound 566, 1-{4-[1-(1,4-dioxaspiro[4.5]dec-8-yl)-4-morpholin-4-yl-1H-pyrazolo[3,4-d]pyrimidin-6-yl]phenyl}-3-methylurea]	85 nM
56 nM	27 nM	CNC(=O)Nc1ccc(-c2nc(N3CCOCC3)c3cnn(C4CCC(=O)CC4)c3n2)cc1 [Compound 567, 1-methyl-3-{4-[4-morpholin-4-yl-1-(4-oxocyclohexyl)-1H-pyrazolo[3,4-d]pyrimidin-6-yl]phenyl}urea]	180 nM
39 nM	54 nM	CNC(=O)Nc1ccc(-c2nc(N3CCOCC3)c3cnn(C4CCC(O)CC4)c3n2)cc1 (stereo not drawn) [Compound 568, 1-{4-[1-(4-hydroxycyclohexyl)-4-morpholin-4-yl-1H-pyrazolo[3,4-d]pyrimidin-6-yl]phenyl}-3-methylurea]	240 nM
216 nM	250 nM	CNC(=O)Nc1ccc(-c2nc(N3CCOCC3)c3cnn(C4CCN(C(=O)c5cccnc5C)CC4)c3n2)cc1 [Compound 573, 1-methyl-3-[4-(1-{1-[(2-methylpyridin-3-yl)carbonyl]piperidin-4-yl}-4-morpholin-4-yl-1H-pyrazolo[3,4-d]pyrimidin-6-yl)phenyl]urea]	900 nM
33 nM	< 27 nM	CNC(=O)Nc1ccc(-c2nc(N3CCOCC3)c3cnn(C4CCN(Cc5ccc(OC)nc5)CC4)c3n2)cc1 [Compound 574, 1-[4-(1-{1-[(6-methoxypyridin-3-yl)methyl]piperidin-4-yl}-4-morpholin-4-yl-1H-pyrazolo[3,4-d]pyrimidin-6-yl)phenyl]-3-methylurea]	700 nM
64 nM	< 27 nM	CNC(=O)Nc1ccc(-c2nc(N3CCOCC3)c3cnn(C4CCN(Cc5ccccn5)CC4)c3n2)cc1 [Compound 575, 1-methyl-3-(4-{4-morpholin-4-yl-1-[1-(pyridin-2-ylmethyl)piperidin-4-yl]-1H-pyrazolo[3,4-d]pyrimidin-6-yl}phenyl)urea]	500 nM
66 nM	600 nM	CNC(=O)Nc1ccc(-c2nc(N3CCOCC3)c3cnn(C4CCN(CC(N)=O)CC4)c3n2)cc1 [Compound 576, 2-[4-(6-{4-[(methylcarbamoyl)amino]phenyl}-4-morpholin-4-yl-1H-pyrazolo[3,4-d]pyrimidin-1-yl)piperidin-1-yl]acetamide]	1000 nM
22 nM	< 27 nM	CNC(=O)Nc1ccc(-c2nc(N3CCOCC3)c3cnn(C4CCN(CC(=O)c5ccccc5)CC4)c3n2)cc1 [Compound 577, 1-methyl-3-(4-{4-morpholin-4-yl-1-[1-(2-oxo-2-phenylethyl)piperidin-4-yl]-1H-pyrazolo[3,4-d]pyrimidin-6-yl}phenyl)urea]	180 nM
71 nM	400 nM	CNC(=O)Nc1ccc(-c2nc(N3CCOCC3)c3cnn(C4CCN(C(=O)N5CCN(C)CC5)CC4)c3n2)cc1 [Compound 578, 1-methyl-3-[4-(1-{1-[(4-methylpiperazin-1-yl)carbonyl]piperidin-4-yl}-4-morpholin-4-yl-1H-pyrazolo[3,4-d]pyrimidin-6-yl)phenyl]urea]	700 nM
30 nM	3000 nM	CNC(=O)Nc1ccc(-c2nc(N3CCOCC3)c3cnn(C4CCN(C(=O)Nc5cccnc5)CC4)c3n2)cc1 [Compound 579, 4-(6-{4-[(methylcarbamoyl)amino]phenyl}-4-morpholin-4-yl-1H-pyrazolo[3,4-d]pyrimidin-1-yl)-N-pyridin-3-ylpiperidine-1-carboxamide]	2500 nM
